Laboratory results taken from ChEMBL document CHEMBL1201862, “PubChem BioAssay data set” (2004).
Activity calls are given as the source filed them.

Legend:
[1] = target: ALK tyrosine kinase receptor (Homo sapiens, UniProt Q9UM73); type: functional;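 note: ALK tested as one member of a kinase panel screen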
[2] = target: Cyclin-dependent kinase 19 (Homo sapiens, UniProt Q9BWU1); experiment: Navigating the Kinome. Panel member name: CDC2L6; type: functional
[3] = target: Tyrosine-protein kinase JAK2 (Homo sapiens, UniProt O60674); type: functional;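 note: JAK2 tested as one member of a kinase panel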
Tyrosine-protein kinase JAK2, sequence (O60674 whole entry): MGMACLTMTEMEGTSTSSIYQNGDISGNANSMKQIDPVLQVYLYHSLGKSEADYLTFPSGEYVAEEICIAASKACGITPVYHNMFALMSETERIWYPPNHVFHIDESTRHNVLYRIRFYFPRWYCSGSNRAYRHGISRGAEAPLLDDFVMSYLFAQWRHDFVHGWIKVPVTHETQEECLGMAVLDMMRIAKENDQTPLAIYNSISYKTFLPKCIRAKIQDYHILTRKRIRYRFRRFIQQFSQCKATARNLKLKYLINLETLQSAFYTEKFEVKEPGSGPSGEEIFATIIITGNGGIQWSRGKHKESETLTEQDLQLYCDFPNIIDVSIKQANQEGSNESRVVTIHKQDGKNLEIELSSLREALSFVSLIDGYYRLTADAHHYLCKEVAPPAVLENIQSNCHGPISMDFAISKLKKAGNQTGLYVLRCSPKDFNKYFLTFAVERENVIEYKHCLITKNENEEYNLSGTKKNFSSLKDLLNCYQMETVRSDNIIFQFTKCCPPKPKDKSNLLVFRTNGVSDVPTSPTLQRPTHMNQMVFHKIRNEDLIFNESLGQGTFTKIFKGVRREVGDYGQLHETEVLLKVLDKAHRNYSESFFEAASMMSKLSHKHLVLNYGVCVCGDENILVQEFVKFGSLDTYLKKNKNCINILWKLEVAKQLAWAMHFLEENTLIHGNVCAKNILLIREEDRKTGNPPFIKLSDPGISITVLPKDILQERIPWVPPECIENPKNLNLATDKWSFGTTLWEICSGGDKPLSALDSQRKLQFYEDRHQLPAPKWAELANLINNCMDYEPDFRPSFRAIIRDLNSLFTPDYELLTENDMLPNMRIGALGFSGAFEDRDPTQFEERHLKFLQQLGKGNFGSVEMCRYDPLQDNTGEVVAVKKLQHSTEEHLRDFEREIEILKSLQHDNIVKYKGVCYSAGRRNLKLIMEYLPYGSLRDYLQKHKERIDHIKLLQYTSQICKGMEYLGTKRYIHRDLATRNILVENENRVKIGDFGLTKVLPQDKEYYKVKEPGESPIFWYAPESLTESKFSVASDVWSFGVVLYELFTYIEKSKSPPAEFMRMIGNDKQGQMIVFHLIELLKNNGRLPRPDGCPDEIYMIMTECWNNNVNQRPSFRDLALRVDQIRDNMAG

[4] = target: Tyrosine-protein kinase SYK (Homo sapiens, UniProt P43405); type: functional
[5] = target: Mitogen-activated protein kinase kinase kinase kinase 4 (Homo sapiens, UniProt O95819); type: functional
Wee1-like protein kinase = Wee1-like protein kinase (Homo sapiens, UniProt P30291); experiment: Navigating the Kinome. Panel member name: WEE1; type: functional
[6] = target: T1, Sentrin-specific protease 8 (Homo sapiens, UniProt Q96LD8); experiment: inhibition of human SENP8 cleavage activity – biochemical, luminescence, SAR follow-up (AID 504501); type: functional
T1 sequence (Q96LD8 whole entry): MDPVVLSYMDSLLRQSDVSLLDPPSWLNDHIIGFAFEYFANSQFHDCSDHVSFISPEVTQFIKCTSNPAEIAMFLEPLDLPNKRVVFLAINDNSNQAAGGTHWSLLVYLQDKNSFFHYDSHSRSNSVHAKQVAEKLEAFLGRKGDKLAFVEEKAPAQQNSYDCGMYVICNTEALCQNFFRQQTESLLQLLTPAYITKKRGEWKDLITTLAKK

Caspase-3 = target: T2, Caspase-3 (Homo sapiens, UniProt P42574); experiment: SAR Analysis of small molecule inhibitors of Sentrin-specific proteases (SENPs) using a Caspase-3 Selectivity assay. [Related pubchem assays (depositor defined):AID2540, AID2599, AID434973, AID489001]; type: functional
T2 sequence (P42574 whole entry): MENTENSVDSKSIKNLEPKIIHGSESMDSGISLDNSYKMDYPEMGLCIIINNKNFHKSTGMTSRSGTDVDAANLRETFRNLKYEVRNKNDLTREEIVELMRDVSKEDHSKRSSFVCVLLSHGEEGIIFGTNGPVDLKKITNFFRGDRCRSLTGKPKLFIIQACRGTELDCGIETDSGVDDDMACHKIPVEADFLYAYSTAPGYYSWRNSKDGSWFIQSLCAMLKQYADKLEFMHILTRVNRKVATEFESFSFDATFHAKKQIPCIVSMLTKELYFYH

[7] = target: T3, Sentrin-specific protease 6 (Homo sapiens, UniProt Q9GZR1); experiment: SAR Analysis of small molecule inhibitors of Sentrin-specific protease 6 (SENP6) using a Luminescent assay. [Related pubchem assays (depositor defined):AID2582, AID2599]; type: functional
T3 sequence (Q9GZR1 whole entry): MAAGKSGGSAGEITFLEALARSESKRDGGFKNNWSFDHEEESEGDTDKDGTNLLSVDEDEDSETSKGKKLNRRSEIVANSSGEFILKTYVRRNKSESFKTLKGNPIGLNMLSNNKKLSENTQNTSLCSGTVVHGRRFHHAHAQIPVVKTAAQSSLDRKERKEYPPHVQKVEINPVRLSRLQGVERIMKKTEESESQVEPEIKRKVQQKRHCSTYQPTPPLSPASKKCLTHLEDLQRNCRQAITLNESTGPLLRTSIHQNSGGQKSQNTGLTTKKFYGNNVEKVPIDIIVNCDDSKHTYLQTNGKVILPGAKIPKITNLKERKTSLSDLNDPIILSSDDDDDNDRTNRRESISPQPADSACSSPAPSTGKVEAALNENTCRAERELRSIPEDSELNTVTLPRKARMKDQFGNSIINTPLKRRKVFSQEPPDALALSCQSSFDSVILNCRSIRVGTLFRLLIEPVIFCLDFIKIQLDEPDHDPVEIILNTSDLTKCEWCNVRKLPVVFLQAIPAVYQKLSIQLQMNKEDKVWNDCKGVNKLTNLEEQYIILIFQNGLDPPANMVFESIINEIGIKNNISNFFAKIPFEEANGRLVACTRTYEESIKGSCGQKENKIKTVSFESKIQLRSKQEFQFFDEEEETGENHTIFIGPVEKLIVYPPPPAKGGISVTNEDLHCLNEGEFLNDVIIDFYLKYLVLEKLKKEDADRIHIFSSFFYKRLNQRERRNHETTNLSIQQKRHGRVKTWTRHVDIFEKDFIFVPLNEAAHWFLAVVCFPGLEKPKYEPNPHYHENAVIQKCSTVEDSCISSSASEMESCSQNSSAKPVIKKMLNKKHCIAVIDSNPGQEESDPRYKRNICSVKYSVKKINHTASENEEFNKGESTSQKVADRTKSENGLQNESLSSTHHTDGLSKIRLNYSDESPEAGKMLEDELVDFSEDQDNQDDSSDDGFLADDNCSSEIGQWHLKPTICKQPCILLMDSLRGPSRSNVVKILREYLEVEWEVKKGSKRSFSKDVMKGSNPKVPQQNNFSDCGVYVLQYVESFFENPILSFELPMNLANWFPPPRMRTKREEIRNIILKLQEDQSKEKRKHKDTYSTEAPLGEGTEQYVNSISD

[8] = target: T4, Sentrin-specific protease 7 (Homo sapiens, UniProt Q9BQF6); experiment: inhibition of human SENP7 cleavage activity – biochemical, luminescence, SAR follow-up (AID 504497); type: functional
T4 sequence (Q9BQF6 whole entry): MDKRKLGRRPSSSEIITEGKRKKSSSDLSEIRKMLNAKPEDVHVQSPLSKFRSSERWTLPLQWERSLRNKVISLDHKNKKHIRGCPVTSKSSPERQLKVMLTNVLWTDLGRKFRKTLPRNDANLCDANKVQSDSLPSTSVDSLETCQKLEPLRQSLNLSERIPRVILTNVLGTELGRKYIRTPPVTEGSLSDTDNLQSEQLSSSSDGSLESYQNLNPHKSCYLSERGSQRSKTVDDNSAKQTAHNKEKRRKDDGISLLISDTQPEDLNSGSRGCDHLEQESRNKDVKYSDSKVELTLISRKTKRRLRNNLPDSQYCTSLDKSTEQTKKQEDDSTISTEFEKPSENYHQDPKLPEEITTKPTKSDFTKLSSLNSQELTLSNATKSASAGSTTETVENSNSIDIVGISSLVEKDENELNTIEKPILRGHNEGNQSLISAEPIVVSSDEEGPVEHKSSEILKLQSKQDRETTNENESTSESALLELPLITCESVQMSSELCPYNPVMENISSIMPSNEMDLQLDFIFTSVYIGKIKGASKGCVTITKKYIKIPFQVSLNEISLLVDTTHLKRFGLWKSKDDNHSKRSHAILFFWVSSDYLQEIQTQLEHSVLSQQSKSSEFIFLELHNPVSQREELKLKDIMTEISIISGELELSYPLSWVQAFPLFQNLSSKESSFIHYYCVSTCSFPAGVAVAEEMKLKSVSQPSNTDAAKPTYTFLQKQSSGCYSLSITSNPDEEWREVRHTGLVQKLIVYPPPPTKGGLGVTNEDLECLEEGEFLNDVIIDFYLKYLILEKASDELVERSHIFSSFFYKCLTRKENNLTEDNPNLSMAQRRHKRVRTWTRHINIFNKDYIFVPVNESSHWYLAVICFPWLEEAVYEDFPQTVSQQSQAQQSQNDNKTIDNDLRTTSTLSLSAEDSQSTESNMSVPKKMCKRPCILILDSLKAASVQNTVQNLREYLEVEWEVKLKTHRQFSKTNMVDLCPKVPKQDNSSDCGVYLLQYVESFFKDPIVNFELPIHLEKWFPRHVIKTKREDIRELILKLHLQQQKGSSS

Candida albicans [9] = experiment: resistant Candida growth with fluconazole co-treatment – CaCi-8 strain, Alamar Blue, dry powder, set 3, dose response (AID 488905); type: functional, organism-based
Candida albicans [10] = experiment: Candida growth inhibition combined with fluconazole – CaCi-2 strain, Alamar Blue, dry powder, set 3, dose response (AID 488907); type: functional, organism-based
[11] = target: Serine/threonine-protein kinase pim-1 (Homo sapiens, UniProt P11309); type: functional
Serine/threonine-protein kinase pim-1, sequence (P11309 whole entry): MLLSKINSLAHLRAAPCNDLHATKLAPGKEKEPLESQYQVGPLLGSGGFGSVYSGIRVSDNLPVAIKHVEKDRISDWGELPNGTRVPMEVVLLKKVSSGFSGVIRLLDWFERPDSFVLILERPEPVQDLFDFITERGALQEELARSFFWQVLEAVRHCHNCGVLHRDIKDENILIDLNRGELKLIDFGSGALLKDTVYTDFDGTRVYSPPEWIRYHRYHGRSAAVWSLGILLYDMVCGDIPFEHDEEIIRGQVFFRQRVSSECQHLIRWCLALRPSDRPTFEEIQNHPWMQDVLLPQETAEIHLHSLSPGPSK

[12] = target: Casein kinase II subunit alpha (Homo sapiens, UniProt P68400); type: functional
[13] = target: Serine/threonine-protein kinase pim-3 (Homo sapiens, UniProt Q86V86); type: functional;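 note: value obtained as one member of a broad kinase panel profiling effort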
[14] = target: Serine/threonine-protein kinase BRSK1 (Homo sapiens, UniProt Q8TDC3); type: functional;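 note: measured within a kinome-wide kinase panel, with the target listed as KIAA1811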
[15] = A cytotoxicity screen of small molecule inhibitors of the PhoP region in Salmonella typhi identified in the primary screen. [Related pubchem assays: 1850, 1864, 1985 ]; type: functional
Aurora kinase A = Aurora kinase A (Homo sapiens, UniProt O14965); type: functional;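 note: value from the Navigating the Kinome kinase panel profiling, panel entry STK6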
[16] = target: Glycogen synthase kinase-3 beta (Homo sapiens, UniProt P49841); type: functional;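 note: value comes from a broad kinome profiling panel, with GSK3B as the panel member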
Activin receptor type-1 = Activin receptor type-1 (Homo sapiens, UniProt Q04771); experiment: Navigating the Kinome. Panel member name: ACVR1; type: functional
[17] = target: High affinity nerve growth factor receptor (Homo sapiens, UniProt P04629); type: functional;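 note: NTRK1 tested as one member of a kinome-wide profiling panel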
High affinity nerve growth factor receptor, sequence (P04629 whole entry): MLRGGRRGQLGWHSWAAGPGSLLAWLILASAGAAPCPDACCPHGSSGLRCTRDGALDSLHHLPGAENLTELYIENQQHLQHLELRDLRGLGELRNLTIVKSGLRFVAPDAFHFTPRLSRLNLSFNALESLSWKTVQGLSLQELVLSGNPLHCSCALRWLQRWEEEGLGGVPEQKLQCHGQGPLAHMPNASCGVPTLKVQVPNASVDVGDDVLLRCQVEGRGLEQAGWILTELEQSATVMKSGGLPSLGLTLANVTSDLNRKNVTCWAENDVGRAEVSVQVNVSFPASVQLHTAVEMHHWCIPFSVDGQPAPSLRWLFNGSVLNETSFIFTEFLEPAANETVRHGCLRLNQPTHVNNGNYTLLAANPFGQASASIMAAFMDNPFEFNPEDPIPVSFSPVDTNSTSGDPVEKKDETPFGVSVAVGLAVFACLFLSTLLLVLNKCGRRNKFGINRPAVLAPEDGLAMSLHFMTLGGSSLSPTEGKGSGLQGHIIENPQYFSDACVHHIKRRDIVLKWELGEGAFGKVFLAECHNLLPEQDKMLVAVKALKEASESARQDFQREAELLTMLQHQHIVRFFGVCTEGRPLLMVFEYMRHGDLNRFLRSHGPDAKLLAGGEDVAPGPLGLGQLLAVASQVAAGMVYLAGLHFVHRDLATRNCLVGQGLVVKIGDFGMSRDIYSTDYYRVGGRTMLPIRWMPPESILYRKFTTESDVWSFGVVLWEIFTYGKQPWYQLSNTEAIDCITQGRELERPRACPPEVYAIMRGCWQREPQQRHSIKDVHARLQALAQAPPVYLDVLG

[18] = target: Mitogen-activated protein kinase 13 (Homo sapiens, UniProt O15264); type: functional
[19] = target: Dual specificity tyrosine-phosphorylation-regulated kinase 1B (Homo sapiens, UniProt Q9Y463); experiment: Navigating the Kinome. Panel member name: DYRK1B; type: functional
[20] = target: Platelet-derived growth factor receptor alpha (Homo sapiens, UniProt P16234); experiment: Navigating the Kinome. Panel member name: PDGFRA; type: functional
[21] = target: Leucine-rich repeat serine/threonine-protein kinase 2 (Homo sapiens, UniProt Q5S007); type: functional;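 note: value from a broad kinome-wide panel profiling study in which LRRK2 was one of the kinases tested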
[22] = target: Leukocyte tyrosine kinase receptor (Homo sapiens, UniProt P29376); experiment: Navigating the Kinome. Panel member name: LTK; type: functional
[23] = target: Tyrosine-protein kinase FRK (Homo sapiens, UniProt P42685); type: functional;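 note: FRK tested as one member of a kinome panel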
[24] = target: Serine/threonine-protein kinase D2 (Homo sapiens, UniProt Q9BZL6); type: functional;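 note: measured against PRKD2 as one member of a kinome-wide kinase profiling panel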
[25] = target: Serine/threonine-protein kinase D3 (Homo sapiens, UniProt O94806); type: functional;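 note: determined within a kinase panel screen, with PRKCN as the panel member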
Serine/threonine-protein kinase D3, sequence (O94806 whole entry): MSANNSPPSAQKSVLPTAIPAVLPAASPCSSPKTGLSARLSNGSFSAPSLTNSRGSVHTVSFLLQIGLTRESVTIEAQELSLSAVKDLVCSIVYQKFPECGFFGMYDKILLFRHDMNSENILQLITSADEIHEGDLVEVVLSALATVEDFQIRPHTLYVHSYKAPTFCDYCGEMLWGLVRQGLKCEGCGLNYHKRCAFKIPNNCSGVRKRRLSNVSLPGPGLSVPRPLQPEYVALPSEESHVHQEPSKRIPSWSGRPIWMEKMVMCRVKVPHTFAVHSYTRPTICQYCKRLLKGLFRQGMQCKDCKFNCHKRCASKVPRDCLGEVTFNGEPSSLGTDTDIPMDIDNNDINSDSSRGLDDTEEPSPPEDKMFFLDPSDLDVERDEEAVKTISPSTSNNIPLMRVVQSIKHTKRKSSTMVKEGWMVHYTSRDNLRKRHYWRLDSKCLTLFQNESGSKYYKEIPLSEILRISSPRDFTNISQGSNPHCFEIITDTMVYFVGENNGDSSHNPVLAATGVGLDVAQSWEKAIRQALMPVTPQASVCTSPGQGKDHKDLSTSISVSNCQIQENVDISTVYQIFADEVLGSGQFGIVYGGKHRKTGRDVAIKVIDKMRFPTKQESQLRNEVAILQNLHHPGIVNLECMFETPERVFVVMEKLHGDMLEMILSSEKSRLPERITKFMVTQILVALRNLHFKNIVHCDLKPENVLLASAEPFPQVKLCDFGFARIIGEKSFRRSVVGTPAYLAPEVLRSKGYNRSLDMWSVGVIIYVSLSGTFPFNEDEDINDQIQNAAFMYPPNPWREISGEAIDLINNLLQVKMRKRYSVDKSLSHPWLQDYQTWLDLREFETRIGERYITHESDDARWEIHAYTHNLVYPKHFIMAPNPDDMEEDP

[26] = target: Rho-associated protein kinase 1 (Homo sapiens, UniProt Q13464); type: functional;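 note: measured within a broad kinome-wide panel profiling many kinases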
Apelin receptor = Apelin receptor (Homo sapiens, UniProt P35414); experiment: apelin receptor antagonists, arrestin read-out – cell-based, luminescent, enzyme-fragment complementation, selectivity assay for CCR6 antagonist project, SAR follow-up (AID 588359); type: functional
[27] = target: C-X-C chemokine receptor type 5 (Homo sapiens, UniProt P32302); experiment: inhibition of CXCL13-driven CXCR5 beta-arrestin recruitment – cell-based, luminescence, CHO-K1 PathHunter, selectivity assay for CCR6 antagonist project, SAR follow-up (AID 540340); type: functional
[28] = target: T5, C-C chemokine receptor type 6 (Homo sapiens, UniProt P51684); experiment: analog antagonism of CCR6 beta-arrestin signaling – cell-based, luminescent beta-arrestin readout, SAR follow-up (AID 540334); type: functional
T5 sequence (P51684 whole entry): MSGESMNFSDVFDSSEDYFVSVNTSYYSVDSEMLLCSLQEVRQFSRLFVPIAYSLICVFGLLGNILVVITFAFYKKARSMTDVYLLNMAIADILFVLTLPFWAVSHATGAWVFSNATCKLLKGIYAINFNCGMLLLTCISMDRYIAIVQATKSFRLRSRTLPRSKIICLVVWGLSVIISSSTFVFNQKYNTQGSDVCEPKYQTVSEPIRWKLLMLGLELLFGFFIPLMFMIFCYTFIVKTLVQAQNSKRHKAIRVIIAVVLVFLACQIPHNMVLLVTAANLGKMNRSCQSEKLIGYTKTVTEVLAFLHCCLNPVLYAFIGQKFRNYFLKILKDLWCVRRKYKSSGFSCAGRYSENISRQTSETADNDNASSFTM

ALK tyrosine kinase receptor, sequence (Q9UM73 whole entry): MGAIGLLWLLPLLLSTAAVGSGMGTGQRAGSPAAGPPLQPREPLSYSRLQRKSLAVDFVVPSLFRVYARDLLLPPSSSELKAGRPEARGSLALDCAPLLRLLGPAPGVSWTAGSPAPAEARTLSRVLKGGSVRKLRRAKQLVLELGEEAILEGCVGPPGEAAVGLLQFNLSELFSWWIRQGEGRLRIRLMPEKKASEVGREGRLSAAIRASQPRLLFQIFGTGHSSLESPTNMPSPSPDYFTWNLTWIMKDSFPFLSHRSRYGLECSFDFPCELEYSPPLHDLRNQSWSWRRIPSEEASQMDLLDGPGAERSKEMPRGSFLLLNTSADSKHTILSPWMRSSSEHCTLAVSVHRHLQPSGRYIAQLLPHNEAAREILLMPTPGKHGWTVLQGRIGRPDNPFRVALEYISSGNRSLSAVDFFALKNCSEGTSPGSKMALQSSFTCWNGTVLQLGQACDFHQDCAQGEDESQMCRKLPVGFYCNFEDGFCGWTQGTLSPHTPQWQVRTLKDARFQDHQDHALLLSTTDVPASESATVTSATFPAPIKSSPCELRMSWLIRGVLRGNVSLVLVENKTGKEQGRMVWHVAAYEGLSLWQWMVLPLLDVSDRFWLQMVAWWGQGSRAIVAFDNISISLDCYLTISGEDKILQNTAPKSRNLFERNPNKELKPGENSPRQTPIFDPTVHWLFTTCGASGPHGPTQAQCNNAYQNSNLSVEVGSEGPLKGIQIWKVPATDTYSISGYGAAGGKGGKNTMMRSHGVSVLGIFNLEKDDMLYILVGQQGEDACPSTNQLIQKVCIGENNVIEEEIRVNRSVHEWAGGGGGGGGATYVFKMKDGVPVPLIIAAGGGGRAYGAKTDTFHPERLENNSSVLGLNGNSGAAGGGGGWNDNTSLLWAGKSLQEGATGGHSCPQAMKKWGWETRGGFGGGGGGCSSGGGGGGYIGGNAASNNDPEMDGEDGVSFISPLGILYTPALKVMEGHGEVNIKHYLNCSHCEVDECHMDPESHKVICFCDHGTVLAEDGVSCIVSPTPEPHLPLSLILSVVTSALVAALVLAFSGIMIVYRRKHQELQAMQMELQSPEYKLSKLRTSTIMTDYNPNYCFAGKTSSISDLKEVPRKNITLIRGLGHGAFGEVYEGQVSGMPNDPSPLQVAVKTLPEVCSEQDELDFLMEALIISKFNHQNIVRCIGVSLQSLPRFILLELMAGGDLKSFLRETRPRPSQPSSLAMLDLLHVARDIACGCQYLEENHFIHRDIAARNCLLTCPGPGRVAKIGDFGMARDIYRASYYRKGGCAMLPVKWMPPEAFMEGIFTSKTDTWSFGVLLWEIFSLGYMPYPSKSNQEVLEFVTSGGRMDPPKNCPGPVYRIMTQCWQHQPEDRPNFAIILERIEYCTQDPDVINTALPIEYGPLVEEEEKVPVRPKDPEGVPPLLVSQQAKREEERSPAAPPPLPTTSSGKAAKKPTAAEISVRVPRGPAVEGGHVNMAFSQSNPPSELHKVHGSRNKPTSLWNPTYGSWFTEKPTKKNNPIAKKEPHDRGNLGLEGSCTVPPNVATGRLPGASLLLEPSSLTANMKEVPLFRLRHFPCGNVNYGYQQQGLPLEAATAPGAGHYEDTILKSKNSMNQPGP

SMILES: Cc1ccc(NC(=O)Nc2ccc(-c3csc4c(-c5cnn(CC(=O)N(C)C)c5)cnc(N)c34)cc2)cc1
- Ki [1]: 158 nM (active)
- Ki [2]: > 100000 nM (inactive)

SMILES: CCN(CC)CCOc1ccc(Nc2ncc3cc(-c4c(Cl)cccc4Cl)c(=O)n(C)c3n2)cc1 [PD-0166285]
- Ki [3]: 39.8 nM (active)
- Ki [4]: 79.4 nM (active)
- Ki [5]: 79.4 nM (active)

SMILES: Cc1cnc(Nc2ccc(N3CCN(C)CC3)cc2)nc1Nc1cccc(S(=O)(=O)NC(C)(C)C)c1
- Ki [1]: 501 nM (active)
- Ki (Wee1-like protein kinase): 126 nM (active)

SMILES: Cc1c(C(=O)Nc2nc3ccc(Cl)cc3s2)oc2ccccc12
- IC50 [6]: > 99000 nM (inactive)
- IC50 (Caspase-3): > 99000 nM (inactive)
- IC50 [7]: > 99000 nM (inactive)
- IC50 [8]: > 99000 nM (inactive)

SMILES: O=C(c1ccc(Cl)cc1)N1CCN(c2ccc(C(F)(F)F)cn2)CC1
- AC50 (Candida albicans [9]): 130000 nM (active)
- AC50 (Candida albicans [10]): 259 nM (active)

SMILES: O=C1ON=C(c2ccc(Br)cc2)C1=Cc1ccc2c(c1)OCO2
- Ki [11]: 2000 nM (active)
- Ki [12]: 1580 nM (active)
- Ki [13]: 7940 nM (active)
- Ki [14]: 10000 nM (active)

SMILES: O=C(Nc1ccccc1)Nc1nccs1
- EC50 [15]: > 50000 nM (active)
- Ki (Aurora kinase A): 15800 nM (active)
- Ki [16]: 10000 nM (active)

SMILES: COc1cccc(C(C)NC(=O)c2ccc(-c3ccncc3)cc2)c1 (stereo not given)
- Ki [3]: > 2510 nM (inactive)
- Ki (Activin receptor type-1): > 3980 nM (inactive)
- Ki [17]: > 2510 nM (inactive)
- Ki [18]: > 7940 nM (inactive)
- Ki [19]: > 2510 nM (inactive)
- Ki [20]: > 2510 nM (inactive)
- Ki [21]: > 2510 nM (inactive)
- Ki [22]: > 2510 nM (inactive)
- Ki [23]: > 2510 nM (inactive)

SMILES: NC(=O)c1ccc(N(C(N)=O)c2c(F)cccc2F)nc1-c1ccc(F)cc1F [VX-702]
- Ki [24]: 5010 nM (active)
- Ki [25]: 2510 nM (active)
- Ki [26]: 2510 nM (active)

SMILES: Cc1cccc2c1N(CCCOc1ccc(C(C)(C)C)cc1)C(=O)C2=O
- IC50 (Apelin receptor): > 66600 nM (inactive)
- IC50 [27]: 24300 nM (inactive)
- IC50 [28]: > 66600 nM (inactive)
